Patent US5968526A, “T cell epitopes of the major allergens from Dermatophagoides (house dust mite)” (Immulogic Pharamaceutical Corporation, priority 1995, dated 1999)

Legend:
Type in all cases: cell-based, human
[1] = system: T cell lines primed in vitro to Der f I; assay: secondary proliferation of Der f I-primed T cell lines (Examples VI, VII, XI); settings: for T cell reactivity: overlapping Der f I peptides, 16 positive experiments, FIG. 6; for T cell response: patient 783, recombinant Der f I primed, data not shown; for stimulation index, rank in group: 9 patients, FIG. 16a / 16b
Procedure: Experiments similar to those of Example V were performed to determine. the T cell-reactive areas of the Der f I protein. For example, PBMC from house dust mite-allergic patient 783 were isolated as described in Example V and were stimulated in vitro-- with recombinant purified Der f I at 20 μg/ml. The results of the proliferation assay with Der f I peptides using x-irradiated (3500 Rads) autologous PBMC as antigen presenting cells indicate that T cells from this patient respond to the peptides DF I-8.1, DF I-9, DF I-6, DF I-10, DF I-2.1, DF I-3, DF I-11, DF I-5, DF I-1, and DF I-17 (data not shown).
The above procedure was followed in a number of patients except in individual cases, T cell lines were primed with affinity purified Der f I at 20 μg/ml or at 10 μg/ml and x-irradiated (25,000 Rads) autologous Epstein-Barr virus transformed B cells were used as antigen presenting cells. […]
Similarly, the procedure described in Example VI was followed with T cell lines from 9 patients primed in vitro to the Der f I protein then analyzed for response to selected peptides derived from the protein. The data was analyzed as described in Example VI. […]

[2] = system: T cell lines primed in vitro to Der p I; assay: secondary proliferation of Der p I-primed T cell lines (Examples V, VII, XI); settings: for T cell response to Der f I peptides / T cell response to selected Der f I peptides: Der p I primed; for T cell response to Der f I peptides: 14 positive experiments, FIG. 7; for T cell response to selected Der p I peptides: FIG. 13; for positivity index (P.I.): mean S.I. × percent responders, 33 patients; for T cell response to selected Der f I peptides: 30 positive experiments, FIG. 15a
Procedure: 10^7 PBMC from individual 543 were cultured in 10 ml RPMI-1640 containing 5% pooled human AB serum and supplemented with glutamine, penicillin, streptomycin and HEPES buffer in the presence of 20 μg/ml purified native Der p I/ml at 37° C. for 7 days. Viable cells were then purified by Ficoll-Hypaque centrifugation and cultured for 2 additional weeks in RPMI-1640/5% AB serum containing 5 units recombinant human IL-2/ml and 5 units recombinant human IL-4/ml. The resting T cells were then tested in a secondary proliferation assay to assess T cell responses to various house dust mite proteins and peptides. For assay, 2×10^4 resting T cells were cultured in 200 μl of RPMI-1640/5% AB serum for 3 days at 37° C. in the presence of 2×10^4 autologous Epstein-Barr virus transformed B cells (20,000 Rads) as antigen presenting cells with various concentrations of purified native Der p I or synthetic Der p I peptides. Each well then received 1 μCi tritiated thymidine for 16 hours. The counts incorporated were collected onto glass fiber filters and processed for liquid scintillation counting. Medium alone, acting as negative control, contained no allergen or peptide. The results of this experiment indicate that this particular patient responds with an S.I. of at least 2.0 to several peptides derived from the Der p I protein, including DP I-1, DP I-2, DP I-4, DP I-11, DP I-5, DP I-13, DP I-15, DP I-6.1, DP I-8, DP I-9, DP I-16, DP I-10 and DP I-17 (data not shown).
The above procedure was followed with a number of other house dust mite allergic individuals except a) in individual cases, the length of time of cultivation with IL-2 and IL-4 varied; b) in individual cases, the T cells were primed with either purified native (N) or recombinant (R) Der p I protein at either 20 μg/ml or 10 μg/ml; and c) in individual cases, x-irradiated (3500 Rads) autologous PBMC were used as antigen presenting cells in the secondary proliferation assay.
Individual results were considered positive and used if the individual responded to the Der p I protein and at least one peptide derived from Der p I at an S.I. of 2.0 or greater. The resting T cell lines primed with recombinant or native Der p I-stimulated PBMC were tested for reactivity to synthetic Der p I peptides. The maximum response for each peptide in a titration of the antigen is expressed as the T cell stimulation index (S.I.). The S.I. is the counts-per-minute (CPM) incorporated by cells in response to the peptide divided by the CPM incorporated by cells in medium only. […] However, only individual S.I. values greater than or equal to 2.0 (a response two-fold or greater over background), referred to herein as "positive" results, were used in calculating mean T cell stimulation indices for each peptide for the patient or group of patients tested. […] The T cell stimulation index is calculated by: [formula]
The bar represents the cumulative rank of the peptide response in the group of patients. To determine the cumulative rank, the 5 peptides with the highest S.I. in each individual were determined and assigned a numerical rank in descending order, with 5 representing the strongest response. The ranks for each peptide were then summed in the group of patients to determine the cumulative rank for the peptide. […] Given the percent positive and the mean T cell stimulation index, the positivity index (P.I.) for each peptide can be calculated.
The Der p I and Der f I proteins are very homologous (81% identity). Thus, experiments, similar to those of Example V, were carried out to determine the T cell responses of Der p I primed T cell lines when challenged with various Der p I peptides and substantially matching […].
The results of T cell studies using selected peptides derived from the Der p I, the Der f I, the Der p II and the Der f II proteins are shown in FIGS. 13-18a-d. […]

[3] = system: T cell lines primed in vitro to Der p II; assay: secondary proliferation of Der p II-primed T cell lines (Examples VIII, X, XI); settings: for T cell reactivity: overlapping Der p II peptides, 26 positive experiments, FIG. 9; for T cell response: patient 348, native Der p II primed, data not shown; for T-cell reactivity (DPII-22 series development): Der p II T-cell map and analogs
Procedure: Experiments similar to those of Example V were performed to determine the T cell-reactive areas of the Der p II protein. For example, PBMC from house dust mite-allergic patient 348 were isolated as described in Example V and were stimulated in vitro with 20 μg/ml purified native Der p II.
The above procedure was followed with a number of patients except in individual cases, T cell lines were primed with recombinant Der p II at 20 μg/ml or at 3 μg/ml and x-irradiated (3500 Rads) autologous PBMC were used as antigen-presenting cells. The data was analyzed as described in Example V, except the ranked sum of peptide responses was analyzed assigning a value of 3, 2 or 1 to the three highest S.I. responses.
A study similar to that described in Example VII was carried out to determine the T cell cross-reactivity of the Der p II and Der f II proteins. T cells primed with the Der f II protein were challenged with various Der f II peptides and a set of substantially matching Der p II peptides.
Another experiment following the procedure described in Example VIII analyzed the response of 29 patients primed in vitro to the Der p II protein and challenged with selected peptides derived from the Der p II sequence.

## DF I-11: Der f I peptide (YRNTSLDLSEQELVDCASQHGC)
[1]
  T cell reactivity: significant areas of T cell reactivity
  T cell response: respond
[2]
  T cell response to Der f I peptides: respond significantly

## DF I-4: Der f I peptide (VAATESAYLAYRNTSLDLSEQ)
[1]
  T cell reactivity: significant areas of T cell reactivity
[2]
  T cell response to Der f I peptides: respond significantly

## DP I-23.2: Der p I peptide (DTIPRGIEYIQHNGVVQESYYRYVAREQS)
[2]; 33 positive experiments
  T cell response to selected Der p I peptides: respond significantly
[2]
  positivity index (P.I.): at least 150

## DP II-3: Der p II peptide with a low number of conservative changes from the native sequence (HGSEPCIIHRGKPFQLEAVFEAVQNTKTA)
[3]
  T cell reactivity: significant T cell reactivity

## DP I-25.2: Der p I peptide (QIYPPNANKIREALAQTHSAIA)
[2]; 33 positive experiments
  T cell response to selected Der p I peptides: respond significantly
[2]
  positivity index (P.I.): at least 150

## DF I-15: Der f I peptide (HYGISNYCQIYPPDVKQIREAL)
[2]
  T cell response to Der f I peptides: respond significantly

## DP I-28.1: Der p I peptide (NIVGYSNAQGVDYWIVRNSWDTNWGDNGY)
[2]; 33 positive experiments
  T cell response to selected Der p I peptides: respond significantly

## DF I-21.2: Der f I peptide (RINSVNVPSELDLRSLRTVTPIRMQ)
[2]
  T cell response to selected Der f I peptides: respond significantly

## DP II-2: Der p II peptide (HEIKKVLVPGCHGSEPCIIHRGKPF)
[3]
  T cell reactivity: significant T cell reactivity
  T cell response: responds well

## DF I-8.1: Der f I peptide (IKDLRAFQHYDGRTIIQHDNGYQPNY)
[1]
  T cell reactivity: significant areas of T cell reactivity
  T cell response: respond

## DP II-5: Der p II peptide (KIEIKASIDGLEVDVPGIDPNACHYMK)
[3]
  T-cell reactivity (DPII-22 series development): high T-cell reactivity

## DF I-27.1: Der f I peptide (HDNGYQPNYHAVNIVGYGSTQGDDY)
[2]
  T cell response to selected Der f I peptides: respond significantly

## DP II-8: Der p II peptide (DIKYTWNVPKIAPKSENVVVTVKVMG)
[3]
  T cell reactivity: significant T cell reactivity
  T cell response: responds well

## DF I-22.1: Der f I peptide (AFSGVAATESAYLAYRNTSLDLSEQELVD)
[1]
  stimulation index, rank in group: highest stimulation indexes

## DF I-26.1: Der f I peptide (IIGIKDLRAFQHYDGRTIIQHDNGYQ)
[2]
  T cell response to selected Der f I peptides: respond significantly

## DF I-23.2: Der f I peptide (DTIPRGIEYIQQNGVVEERSYPYVAREQR)
[2]
  T cell response to selected Der f I peptides: respond significantly

## DF I-14: Der f I peptide (QRCRRPNSQHYGISNYCQI)
[1]
  T cell reactivity: significant areas of T cell reactivity

## DF I-10: Der f I peptide (QGDDYWIVRNSWDTTWGDSGYGYF)
[1]
  T cell response: respond

## DP I-22.1: Der p I peptide (AFSGVAATESAYLAHRNQSLDLAEQELVD)
[2]; 33 positive experiments
  T cell response to selected Der p I peptides: respond significantly

## DF I-5: Der f I peptide (GDTIPRGIEYIQQNGVVEERSYPYVARE)
[1]
  T cell reactivity: significant areas of T cell reactivity
  T cell response: respond

## DF I-17: Der f I peptide (GDSGYGYFQAGNNLMMIEQYPYVVIM)
[1]
  T cell response: respond

## DF I-21.1: Der f I peptide (TSACRINSVNVPSELDLRSLRTVTPIRMQ)
[2]
  T cell response to selected Der f I peptides: respond significantly

## DP II-3.1: Der p II peptide, native sequence (HGSEPCIIHRGKPFQLEAVFEANQNTKTA)
[3]; DP II-3 vs DP II-3.1
  difference in mean S.I. or percentage of positive responses, original vs additional (native sequence) peptides: no significant difference
[3]
  T-cell reactivity (DPII-22 series development): high T-cell reactivity

## DF I-6: Der f I peptide (YPPDVKQIREALFQTHTAIAVIIG)
[1]
  T cell reactivity: significant areas of T cell reactivity
  T cell response: respond
[2]
  T cell response to Der f I peptides: respond significantly

## DF I-25.1: Der f I peptide (QIYPPDVKQIREALTQTHTAIAVIIGIKD)
[1]
  stimulation index, rank in group: highest stimulation indexes
[2]
  T cell response to selected Der f I peptides: respond significantly

## DF I-23.1: Der f I peptide (EYIQQNGVVEERSYPYVAREQRCRRPNSQ)
[2]
  T cell response to selected Der f I peptides: respond significantly

## DF I-3: Der f I peptide (TVTPIRMQGGCGSCWAFSGVAATESAYLA)
[1]
  T cell reactivity: significant areas of T cell reactivity
  T cell response: respond
[2]
  T cell response to Der f I peptides: respond significantly

## DF I-12: Der f I peptide (ELVDCASQHGCHGDTIPRGIE)
[2]
  T cell response to Der f I peptides: respond significantly

## DF I-1: Der f I peptide, amino acid residues 1-20 (TSACRINSVNVPSELDLRSLR)
[1]
  T cell reactivity: significant areas of T cell reactivity
  T cell response: respond
[2]
  T cell response to Der f I peptides: respond significantly

## DP I-5: Der p I peptide (GDTIPRGIEYIQHNGVVQESYYRYVARE)
[1]; Der f I primed, 8 positive experiments, FIG. 8
  T cell response to Der p I peptides: respond significantly
[2]; overlapping Der p I peptides, 33 positive experiments
  T cell reactivity: significant regions of T cell reactivity

## DF I-2.1: Der f I peptide (ELDLRSLRTVTPIRMQGGCGSCWAFSG)
[1]
  T cell response: respond

## DF I-7: Der f I peptide (TQTHTAIAVIIGIKDLRAFQHYDGRT)
[1]
  T cell reactivity: significant areas of T cell reactivity
